Experimental data published in article PMC6253998, “Ring-substituted 4-Hydroxy-1H-quinolin-2-ones: Preparation and Biological Activity” (Molecules, 2009).
≈ marks a conversion by molar mass, not a printed value. Where “and” joins values, the source holds several entries; their conditions need not be identical. Equal values may be shown once. Read-outs that look alike come from different tables or passages of the source.

Legend:
Candida tropicalis 156 = experiment: In vitro antifungal broth microdilution test; format: cell-based; conditions: RPMI 1640, pH 7.0, 35 °C; for MIC: Candida tropicalis, 156, read-out: MIC/IC80 CT
Description: (§1) Fluconazole (FLU) was used as the standard of a clinically used antimycotic drug. The procedure was performed with twofold dilution of the compounds in […]., Prague, Czech Republic) buffered to pH 7.0 with 0.165 mol of 3-morpholino-propane-1-sulfonic acid (MOPS, Sigma, Germany). […] Drug-free controls were included. The MIC was defined as an 80% or greater (IC80) reduction of growth in comparison with the control.

Candida krusei ATCC 6258 = experiment: In vitro antifungal broth microdilution test; format: cell-based; conditions: RPMI 1640, pH 7.0, 35 °C; for MIC: Pichia kudriavzevii, ATCC6258, read-out: MIC/IC80 CK
Description: as §1

Candida glabrata 20/I = experiment: In vitro antifungal broth microdilution test; format: cell-based; conditions: for MIC/IC80 CG / MIC: RPMI 1640, pH 7.0, 35 °C; for MIC: Nakaseomyces glabratus, 20/I, read-out: MIC/IC80 CG
Description: as §1

Absidia corymbifera 272 = experiment: In vitro antifungal broth microdilution test; format: cell-based; conditions: RPMI 1640, pH 7.0, 35 °C; for MIC: Lichtheimia corymbifera, 272, read-out: MIC/IC80 AC
Description: as §1

[1] = test system: Aspergillus fumigatus 231; experiment: In vitro antifungal broth microdilution test; format: cell-based; conditions: RPMI 1640, pH 7.0, 35 °C; for MIC: Aspergillus fumigatus, 231, read-out: MIC/IC80 AF
Description: as §1

[2] = test system: Candida albicans ATCC 44859; experiment: In vitro antifungal broth microdilution test; format: cell-based; conditions: RPMI 1640, pH 7.0, 35 °C; for MIC: Candida albicans, ATCC44859, read-out: MIC/IC80 CA
Description: as §1

[3] = test system: Trichophyton mentagrophytes 445; experiment: In vitro antifungal broth microdilution test; format: cell-based; conditions: for MIC/IC80 TM / MIC: RPMI 1640, pH 7.0, 35 °C; for MIC: Trichophyton mentagrophytes, 445, read-out: MIC/IC80 TM
Description: as §1

[4] = Lipophilicity HPLC determination (capacity factor k / log k); format: physicochemical; conditions: RP-HPLC, C18 column, MeOH 55.0% / H2O 45.0%, isocratic
Description: Hydrophobicities (log P/Clog P values) of the compounds 1-12 were calculated using two commercially available programs and also measured by means of the reversed phase high performance liquid chromatography (RP-HPLC) method for lipophilicity measurement. The procedure was performed under isocratic conditions with methanol as an organic modifier in the mobile phase using an end-capped non-polar C18 stationary RP column. The capacity factors k were determined and subsequent log k values were calculated.
The HPLC separation module Waters Alliance 2695 XE and Waters Photodiode Array Detector 2996 (Waters Corp., Milford, MA, U.S.A.) were used. A Symmetry® C18 5 μm, 4.6 × 250 mm, Part No. WAT054275, (Waters Corp., Milford, MA, U.S.A.) chromatographic column was used. The HPLC separation process was monitored by Millennium32® Chromatography Manager Software, Waters 2004 (Waters Corp., Milford, MA, U.S.A.). The mixture of MeOH p.a. (55.0%) and H2O-HPLC – Mili-Q Grade (45.0%) was used as a mobile phase. The total flow of the column was 0.9 mL/min, injection 30 μL, column temperature 30 °C and sample temperature 10 °C. The detection wavelength 210 nm was chosen. The KI methanolic solution was used for the dead time (TD) determination. Retention times (tR) were measured in minutes. The capacity factors k were calculated using the Millennium32® Chromatography Manager Software according to formula k = (tR - tD) / tD, where tR is the retention time of the solute, whereas tD denotes the dead time obtained via an unretained analyte. Log k, calculated from the capacity factor k, is used as the lipophilicity index converted to log P scale.

eight fungal strains = experiment: In vitro antifungal screening, overall verdict; format: cell-based; conditions: especially against Candida albicans ATCC 44859
Description: (§2) The broth microdilution test was used for the assessment of in vitro antifungal activity of the synthesized compounds against Candida albicans ATCC 44859 (CA), Candida tropicalis 156 (CT), Candida krusei ATCC 6258 (CK), Candida glabrata 20/I (CG), Trichosporon beigelii 1188 (TB), Aspergillus fumigatus 231 (AF), Absidia corymbifera 272 (AC), and Trichophyton mentagrophytes 445 (TM). Fluconazole (FLU) was used as the standard of a clinically used antimycotic drug. The procedure was performed with twofold dilution of the compounds in RPMI 1640 (Sevapharma a.s., Prague, Czech Republic) buffered to pH 7.0 with 0.165 mol of 3-morpholino-propane-1-sulfonic acid (MOPS, Sigma, Germany). The final concentrations of the compounds ranged from 500 to 0.975 μmol/l. Drug–free controls were included. The MIC was defined as an 80% or greater (IC80) reduction of growth in comparison with the control. The values of MICs were determined after 24 and 48 h of static incubation at 35 °C. For T. mentagrophytes, the final MICs were determined after 72 and 120 h of incubation.

[5] = test system: Trichosporon beigelii 1188; experiment: In vitro antifungal broth microdilution test; format: cell-based; conditions: RPMI 1640, pH 7.0, 35 °C; for MIC: Trichosporon beigelii, 1188, read-out: MIC/IC80 TB
Description: as §2

spinach chloroplasts [6] = experiment: Inhibition of oxygen evolution rate (OER) / photosynthetic electron transport in spinach chloroplasts; format: biochemical, Spinacia oleracea L.; conditions: for IC50: DCPIP photoreduction, pH 7.2
Description: Chloroplasts were prepared from spinach (Spinacia oleracea L.) according to Masarovicova and Kralova. The inhibition of photosynthetic electron transport (PET) in spinach chloroplasts was determined spectrophotometrically (Genesys 6, Thermo Scientific, U.S.A.) using an artificial electron acceptor 2,6-dichlorophenol-indophenol (DCPIP) according to Kralova et al. and the rate of photosynthetic electron transport was monitored as a photoreduction of DCPIP. The measurements were carried out in phosphate buffer (0.02 mol/L, pH 7.2) containing sucrose (0.4 mol/L), MgCl2 (0.005 mol/L) and NaCl (0.015 mol/L). The chlorophyll content was 30 mg/L in these experiments and the samples were irradiated (~100 W/m^2) from 10 cm distance with a halogen lamp (250 W) using a 4 cm water filter to prevent warming of the samples (suspension temperature 22 °C). The studied compounds were dissolved in DMSO due to their limited water solubility. […] The inhibitory efficiency of the studied compounds was expressed by IC50 values, i.e. by molar concentration of the compounds causing 50% decrease in the oxygen evolution rate relative to the untreated control.

spinach chloroplasts [7] = test system: spinach chloroplasts; design: method as in earlier work; conditions: standard, read-out: OER inhibition IC50; cited from earlier work

| Compound | log k [4] | in vitro antifungal activity (in words) (eight fungal strains) | IC50 (spinach chloroplasts [6]) [µM] | MIC (Candida tropicalis 156; 24h) [µM] | MIC (Candida tropicalis 156; 48h) [µM] | MIC (Candida krusei ATCC 6258; 24h) [µM] | MIC (Candida krusei ATCC 6258; 48h) [µM] | MIC (Candida glabrata 20/I; 24h) [µM] | MIC (Candida glabrata 20/I; 48h) [µM] | MIC (Absidia corymbifera 272; 24h) [µM] | MIC (Absidia corymbifera 272; 48h) [µM] | MIC ([1]; 24h) [µM] | MIC ([1]; 48h) [µM] | MIC ([2]; 24h) [µM] | MIC ([2]; 48h) [µM] | MIC ([3]; 72h) [µM] | MIC ([3]; 120h) [µM] | MIC ([5]; 24h) [µM] | MIC ([5]; 48h) [µM] | also measured |
| --- | --- | --- | --- | --- | --- | --- | --- | --- | --- | --- | --- | --- | --- | --- | --- | --- | --- | --- | --- | --- |
| 3-(4-Carboxy-3-hydroxyphenylcarbamoyl)-4-hydroxy-2-oxo-1,2-dihydroquinoline-6-carboxylic acid [Compound 12] | 0.0093 | only a moderate activity | 321 |  |  |  |  |  |  |  |  |  |  |  |  |  |  |  |  | MIC/IC80 CT (Candida tropicalis 156; 24h): 500 µM; MIC/IC80 CT (Candida tropicalis 156; 48h): >500 µM; MIC/IC80 CK (Candida krusei ATCC 6258; 24h): >500 µM; MIC/IC80 CK (Candida krusei ATCC 6258; 48h): >500 µM; MIC/IC80 CG (Candida glabrata 20/I; 24h): 125 µM; MIC/IC80 CG (Candida glabrata 20/I; 48h): 250 µM; MIC/IC80 AC (Absidia corymbifera 272; 24h): 500 µM; MIC/IC80 AC (Absidia corymbifera 272; 48h): >500 µM; MIC/IC80 AF ([1]; 24h): 500 µM; MIC/IC80 AF ([1]; 48h): >500 µM; MIC/IC80 CA ([2]; 24h): 62.50 µM; MIC/IC80 CA ([2]; 48h): 125 µM; MIC/IC80 TM ([3]; 72h): 500 µM; MIC/IC80 TM ([3]; 120h): >500 µM; MIC/IC80 TB ([5]; 24h): 125 µM; MIC/IC80 TB ([5]; 48h): >500 µM |
| O=C(O)c1cc2c(O)cc(=O)[nH]c2cc1O [Compound 4, 4,7-Dihydroxy-2-oxo-1,2-dihydroquinoline-6-carboxylic acid] | 0.0080 | only a moderate activity | 538 | 500 (≈ 111 µg/mL) | > 500 | > 500 | > 500 | 62.5 (≈ 13.8 µg/mL) | 250 (≈ 55.3 µg/mL) | > 500 | > 500 | 500 (≈ 111 µg/mL) | > 500 | 15.6 (≈ 3.45 µg/mL) | 62.5 (≈ 13.8 µg/mL) | > 500 | > 500 | 62.5 (≈ 13.8 µg/mL) | > 500 | antifungal activity against Candida glabrata 20/I (in words) (Candida glabrata 20/I): medium activity |
| O=C(O)c1ccc2[nH]c(=O)c(/N=N/c3cc(Cl)c([N+](=O)[O-])cc3Cl)c(O)c2c1 [Compound 8, (E)-3-[(2,5-Dichloro-4-nitrophenyl)diazenyl]-4-hydroxy-2-oxo-1,2-dihydroquinoline-6-carboxylic acid] | 0.6394 | only a moderate activity | 126 | 250 (≈ 106 µg/mL) | > 250 | 250 (≈ 106 µg/mL) | 250 (≈ 106 µg/mL) | 250 (≈ 106 µg/mL) | > 250 | 62.5 (≈ 26.4 µg/mL) | 250 (≈ 106 µg/mL) | 125 (≈ 52.9 µg/mL) | 250 (≈ 106 µg/mL) | 31.2 (≈ 13.2 µg/mL) | 125 (≈ 52.9 µg/mL) | 62.5 (≈ 26.4 µg/mL) | 125 (≈ 52.9 µg/mL) | 250 (≈ 106 µg/mL) | > 250 | antifungal activity against Trichophyton mentagrophytes 445 (in words) [3]: medium activity |
| CCOC(=O)c1c(O)c2ccccc2[nH]c1=O [Compound 9, Ethyl 4-hydroxy-2-oxo-1,2-dihydroquinoline-3-carboxylate] | 0.4595 |  | 494 | > 500 | > 500 | > 500 | > 500 | > 500 | > 500 | > 500 | > 500 | > 500 | > 500 | > 500 | > 500 | > 500 | > 500 | > 500 | > 500 | OER inhibition effectiveness relative to compound 1 (spinach chloroplasts [6]): approximately twice as effective as compound 1 |
| O=C(O)c1c(O)c2ccccc2[nH]c1=O [Compound 10, 4-Hydroxy-2-oxo-1,2-dihydroquinoline-3-carboxylic acid] | 0.0118 |  | 567 | > 500 | > 500 | > 500 | > 500 | > 500 | > 500 | > 500 | > 500 | > 500 | > 500 | > 500 | > 500 | > 500 | > 500 | > 500 | > 500 |  |
| O=C(O)c1ccc(NC(=O)c2c(O)c3cc(C(=O)O)ccc3[nH]c2=O)cc1 [Compound 11, 3-(4-Carboxyphenylcarbamoyl)-4-hydroxy-2-oxo-1,2-dihydroquinoline-6-carboxylic acid] | 0.0081 |  | 380 | > 500 | > 500 | > 500 | > 500 | > 500 | > 500 | > 500 | > 500 | > 500 | > 500 | > 500 | > 500 | > 500 | > 500 | > 500 | > 500 |  |
| CN(C)C(=O)Nc1ccc(Cl)c(Cl)c1 [DCMU, 3-(3,4-dichlorophenyl)-1,1-dimethylurea] |  |  |  |  |  |  |  |  |  |  |  |  |  |  |  |  |  |  |  | IC50 (spinach chloroplasts [7]): ~1.9 µM and 1.9 µM |
